Experimental data published in patent US20240059703A1 (AMGEN INC., priority 2021, published 2024).

How the values were obtained:
[1] = tested on: A549 (human lung carcinoma) cells; experiment: Cell Viability Assay (CellTiter-Glo), A549; type: cell-based
How it was run: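 Seeding at 1.67E+04 cells/mL is followed by overnight attachment at 37° C., 5% CO2. Serially diluted compound is added for 72 h. Viability is read by CellTiter-Glo luminescence, scaled to DMSO and fitted (4-parameter logistic) to give IC50.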

KRAS G12C = KRAS G12C (Homo sapiens (Human), UniProt P01116, C118A/G12C); experiment: 2 h coupled exchange assay; type: biochemical; details: Avg 2 h Coupled exchange IC50, 2 h compound pre-incubation
Chain of KRAS G12C (P01116 other isoform, or with tags, fused parts or gaps G12C/C118A): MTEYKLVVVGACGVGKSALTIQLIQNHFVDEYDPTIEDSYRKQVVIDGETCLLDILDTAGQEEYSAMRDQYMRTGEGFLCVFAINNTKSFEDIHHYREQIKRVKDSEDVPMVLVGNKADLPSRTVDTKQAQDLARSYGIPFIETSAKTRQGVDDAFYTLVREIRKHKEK
Experimental: The term “2 h coupled exchange assay” or “20 h coupled exchange assay” as used herein refers to the assay described in the Section entitled “BIOLOGICAL EVALUATION.”

[2] = tested on: MIA PaCa-2 (human pancreatic carcinoma) cells; experiment: Cell Viability Assay (CellTiter-Glo), MIA PaCa-2; type: cell-based
Experimental: Serially-diluted compound or DMSO was added to the cells, and plates were incubated at 37° C., 5% CO2 for 72 h. Cell viability was measured using a CellTiter-Glo® Luminescent Cell Viability Assay kit (Promega) according to the manufacturer's protocol. The luminescence signal of treated samples was normalized to DMSO control, and data were analyzed using a 4-parameter logistic model to calculate IC50 values.

[3] = SOS-mediated nucleotide exchange

SMILES | IC50 ([1]; Homo sapiens, A549, 72 h) | IC50 (KRAS G12C; [3]) | IC50 ([2]; Homo sapiens, MIA PaCa-2, 72 h) | IC50 (KRAS G12C) | IC50 ([1]; 72 h) | IC50 ([2]; 72 h)
C=CC(=O)N1CC2(CCN(c3nc4c(c(-c5c(C)ccc6[nH]ncc56)c3C#N)CC3(CC3)C4)C2)C1 [Example 13-14, 4-(5-methyl-1H-indazol-4-yl)-2-(2-(2-propenoyl)-2,6-diazaspiro[3.4]octan-6-yl)-5,7-dihydrospiro[cyclopenta[b]pyridine-6,1′-cyclopropane]-3-carbonitrile] | > 5000 nM | 34 nM | 517 nM |  |  | 
C=CC(=O)N1CC2(CCN(c3nc4c(c(-c5c(C)ccc6[nH]ncc56)c3C)COC(C)(C)C4)C2)C1 [Example 14-23, 1-(6-(3,7,7-trimethyl-4-(5-methyl-1H-indazol-4-yl)-7,8-dihydro-5H-pyrano[4,3-b]pyridin-2-yl)-2,6-diazaspiro[3.4]octan-2-yl)-2-propen-1-one] | > 5000 nM |  | 18 nM | 102 nM |  | 
C=CC(=O)N1CC2(CCN(c3nc4c(c(-c5ccc(F)cc5F)c3C#N)CCN(c3ccc(OC)cc3)C4)C2)C1 [Example 21-7, 4-(2,4-difluorophenyl)-7-(4-methoxyphenyl)-2-(2-(2-propenoyl)-2,6-diazaspiro[3.4]octan-6-yl)-5,6,7,8-tetrahydro-1,7-naphthyridine-3-carbonitrile] | 6020 nM |  | 749 nM | 94 nM |  | 
C=CC(=O)N1CC2(CCN(c3nc4c(c(-c5c(F)cccc5Cl)c3C#N)CCC(c3scnc3C)=C4)C2)C1 [Example 23-22, 4-(2-chloro-6-fluorophenyl)-7-(4-methyl-1,3-thiazol-5-yl)-2-(2-(2-propenoyl)-2,6-diazaspiro[3.4]octan-6-yl)-5,6-dihydro-3-quinolinecarbonitrile] | > 5000 nM |  | 725 nM | 182 nM |  | 
C=CC(=O)N1CC2(CCN(c3nc4cc(-c5scnc5C)cnc4c(-c4ccccc4Cl)c3C#N)C2)C1 (single isomer, unassigned) [Example 20-9, (P)-4-(2-chlorophenyl)-7-(4-methyl-1,3-thiazol-5-yl)-2-(2-(2-propenoyl)-2,6-diazaspiro[3.4]octan-6-yl)-1,5-naphthyridine-3-carbonitrile] |  |  |  | 42 nM | 3190 nM | 200 nM
C=CC(=O)N1CC2(CCN(c3nc4cc(OC)ccc4c(-c4c(C)ccc5cnn(C)c45)c3C)C2)C1 [Example 2-50, 1-(6-(4-(1,6-dimethyl-1H-indazol-7-yl)-7-methoxy-3-methyl-2-quinolinyl)-2,6-diazaspiro[3,4]octan-2-yl)-2-propen-1-one] | > 5000 nM | 466 nM | 2610 nM |  |  | 
C=CC(=O)N1CC2(CCN(c3nc4c(c(-c5c(C)ccc6[nH]ncc56)c3C#N)CCC(C)(C)C4)C2)C1 (single isomer, unassigned) [Example 1-10, (M)-7,7-dimethyl-4-(5-methyl-1H-indazol-4-yl)-2-(2-(2-propenoyl)-2,6-diazaspiro[3.4]octan-6-yl)-5,6,7,8-tetrahydro-3-quinolinecarbonitrile] |  | 6700 nM |  |  | 2910 nM | 2500 nM
C=CC(=O)N1CC2(CCN(c3nc4c(c(-c5c(C)ccc6[nH]ncc56)c3C#N)CC3(CC4)CC3)C2)C1 [Example 13-11, 4′-(5-methyl-1H-indazol-4-yl)-2′-(2-(2-propenoyl)-2,6-diazaspiro[3.4]octan-6-yl)-7′,8′-dihydro-5′H-spiro[cyclopropane-1,6′-quinoline]-3′-carbonitrile] | 4240 nM | 67 nM | 537 nM |  |  | 
C=CC(=O)N1CC2(CCN(c3nc4c(c(-c5ncccc5C)c3C#N)CCC(c3scnc3C)=C4)C2)C1 [Example 23-1, 4-(3-Methyl-2-pyridinyl)-7-(4-methyl-1,3-thiazol-5-yl)-2-(2-(2-propenoyl)-2,6-diazaspiro[3.4]octan-6-yl)-5,6-dihydro-3-quinolinecarbonitrile] | > 5000 nM |  | 507 nM | 178 nM |  | 
C=CC(=O)N1CC2(CCN(c3nc4c(c(-c5cc(O)ccc5C)c3C#N)[C@@H]3CC[C@H]4C3)C2)C1 (single isomer, unassigned) [Example 14-11] | > 5000 nM | 38 nM | 149 nM |  |  | 
C=CC(=O)N1CC2(CCN(c3nc4c(c(-c5c(O)cccc5Cl)c3C#N)COC(c3scnc3C)C4)C2)C1 [Example 23-35, (7R)-4-(2-chloro-6-hydroxyphenyl)-7-(4-methyl-1,3-thiazol-5-yl)-2-(2-(2-propenoyl)-2,6-diazaspiro[3.4]octan-6-yl)-7,8-dihydro-5H-pyrano[4,3-b]pyridine-3-carbonitrile (7S)-4-(2-chloro-6-hydroxyphenyl)-7-(4-methyl-1,3-thiazol-5-yl)-2-(2-(2-propenoyl)-2,6-diazaspiro[3.4]octan-6-yl)-7,8-dihydro-5H-pyrano[4,3-b]pyridine-3-carbonitrile] | 21000 nM |  | 2400 nM | 840 nM |  | 
C=CC(=O)N1CC2(CCN(c3nc4c(c(-c5ccc(F)cc5Cl)c3C#N)CO[C@@H](c3scnc3C)C4)C2)C1 [Example 23-27, (7R)-4-(2-chloro-4-fluorophenyl)-7-(4-methyl-1,3-thiazol-5-yl)-2-(2-(2-propenoyl)-2,6-diazaspiro[3.4]octan-6-yl)-7,8-dihydro-5H-pyrano[4,3-b]pyridine-3-carbonitrile] | > 5000 nM |  | 776 nM | 97 nM |  | 
C=CC(=O)N1CC2(CCN(c3nc4c(c(-c5c(C)ccc6cnn(C)c56)c3C#N)CCC(C)(C)C4)C2)C1 (single isomer, unassigned) [Example 13-145, 4-(1,6-dimethyl-1H-indazol-7-yl)-7,7-dimethyl-2-(2-(2-propenoyl)-2,6-diazaspiro[3.4]octan-6-yl)-5,6,7,8-tetrahydro-3-quinolinecarbonitrile] | > 5000 nM | 31 nM |  |  |  | 208 nM
C=CC(=O)N1CC2(CCN(c3nc4c(c(-c5c(C)ccc6[nH]ncc56)c3C#N)CCC(C)(C)C4)C2)C1 (single isomer, unassigned) [Example 1-8, (P)-7,7-dimethyl-4-(5-methyl-1H-indazol-4-yl)-2-(2-(2-propenoyl)-2,6-diazaspiro[3,4]octan-6-yl)-5,6,7,8-tetrahydro-3-quinolinecarbonitrile] | > 5000 nM | 14 nM |  |  |  | 36.4 nM
C=CC(=O)N1CC2(CCN(c3nc4c(c(-c5ccccc5OC)c3C#N)CCC(c3scnc3C)=C4)C2)C1 [Example 23-39, 4-(2-methoxyphenyl)-7-(4-methyl-1,3-thiazol-5-yl)-2-(2-(2-propenoyl)-2,6-diazaspiro[3.4]octan-6-yl)-5,6-dihydro-3-quinolinecarbonitrile] | 7690 nM |  | 2370 nM | 394 nM |  | 
C=CC(=O)N1CC2(CCN(c3nc4c(c(-c5cc(O)cc6ccccc56)c3C#N)COC(C)(C)C4)C2)C1 (single isomer, unassigned) [Example 13-43, (P)-4-(3-hydroxy-1-naphthalenyl)-7,7-dimethyl-2-(2-(2-propenoyl)-2,6-diazaspiro[3.4]octan-6-yl)-7,8-dihydro-5H-pyrano[4,3-b]pyridine-3-carbonitrile] | > 5000 nM | 16 nM | 143 nM |  |  | 
C=CC(=O)N1CC2(CCN(c3nc4c(c(-c5c(C)ccc6cn[nH]c56)c3C#N)C[C@H]3C[C@@H]4C3(C)C)C2)C1 (single isomer, unassigned) [Example 14-51] | > 5000 nM |  | 18 nM | 11 nM |  | 
